Test results taken from ChEMBL document CHEMBL3351832, “Design and synthesis of lactam-thiophene carboxylic acids as potent hepatitis C virus polymerase inhibitors” (Bioorg Med Chem Lett, 2014).

Experiments:
Hepatitis C virus [1] = experiment: Antiviral activity against Hepatitis C virus genotype 1b by cell-based replicon assay; assay type: functional, Hepacivirus hominis
[2] = Inhibition of purified Hepatitis C virus NS5B; parameters: species or system Hepacivirus hominis
[3] = target: T1, Nuclear receptor subfamily 1 group I member 2 (Homo sapiens, UniProt O75469); experiment: Activation of PXR (unknown origin) at 10 uM by reporter gene assay relative to rifampicin; assay type: ADME
T1 sequence (O75469 whole entry): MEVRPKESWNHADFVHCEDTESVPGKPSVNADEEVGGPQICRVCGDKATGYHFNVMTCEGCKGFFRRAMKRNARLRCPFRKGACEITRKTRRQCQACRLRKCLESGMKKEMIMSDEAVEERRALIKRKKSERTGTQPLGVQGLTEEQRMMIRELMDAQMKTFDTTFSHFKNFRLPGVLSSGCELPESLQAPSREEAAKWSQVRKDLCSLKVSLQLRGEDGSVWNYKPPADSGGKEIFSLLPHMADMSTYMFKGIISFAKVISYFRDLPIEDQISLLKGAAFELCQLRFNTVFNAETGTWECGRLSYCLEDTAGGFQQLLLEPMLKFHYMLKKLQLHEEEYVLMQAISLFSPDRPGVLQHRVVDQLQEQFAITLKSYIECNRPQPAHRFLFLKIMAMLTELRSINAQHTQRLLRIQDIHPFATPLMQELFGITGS

Hepatocyte = experiment: Increase in CYP3A4 mRNA expression in human hepatocytes at 10 uM relative to rifampicin; assay type: ADME, cell-based
Cytochrome P450 3A4 = Cytochrome P450 3A4 (Homo sapiens, UniProt P08684); experiment: Increase in CYP3A4-mediated testosterone metabolism in human hepatocytes at 10 uM relative to rifampicin; assay type: ADME, cell-based, Hepatocyte
Chain of Cytochrome P450 3A4 (P08684 whole entry): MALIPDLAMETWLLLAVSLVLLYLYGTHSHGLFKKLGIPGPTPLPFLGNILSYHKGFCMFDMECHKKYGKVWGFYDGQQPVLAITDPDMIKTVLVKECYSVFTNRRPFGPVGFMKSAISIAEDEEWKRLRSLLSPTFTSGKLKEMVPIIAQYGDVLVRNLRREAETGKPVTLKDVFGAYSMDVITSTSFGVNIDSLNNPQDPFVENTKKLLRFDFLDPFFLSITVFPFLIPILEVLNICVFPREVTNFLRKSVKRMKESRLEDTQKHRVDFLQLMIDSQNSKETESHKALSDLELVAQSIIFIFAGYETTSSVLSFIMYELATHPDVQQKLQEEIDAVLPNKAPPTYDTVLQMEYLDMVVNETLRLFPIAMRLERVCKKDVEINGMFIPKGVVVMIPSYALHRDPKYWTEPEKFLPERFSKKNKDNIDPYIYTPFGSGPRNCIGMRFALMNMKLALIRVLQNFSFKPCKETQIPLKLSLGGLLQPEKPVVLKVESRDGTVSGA

[4] = Oral bioavailability in beagle dog at 3 mg/kg; assay type: ADME, organism-based, Canis lupus familiaris; settings: in vivo
[5] = Oral bioavailability in Sprague-Dawley rat at 5 mg/kg; assay type: ADME, organism-based; settings: in vivo
[6] = Volume of distribution at steady state in beagle dog at 0.3 mg/kg, iv; assay type: ADME, organism-based, Canis lupus familiaris; parameters: dose 0.3 mg/kg, route intravenous; settings: in vivo, read-out: Vdss
[7] = Clearance in Sprague-Dawley rat at 1 mg/kg, iv; assay type: ADME, organism-based; parameters: dose 1 mg/kg, route intravenous; settings: in vivo
[8] = AUC in Sprague-Dawley rat at 1 mg/kg, iv; assay type: ADME, organism-based; parameters: dose 1 mg/kg, route intravenous; settings: plasma
[9] = AUC in beagle dog at 3 mg/kg, po; assay type: ADME, organism-based, Canis lupus familiaris; parameters: dose 3 mg/kg, route oral; settings: plasma
[10] = AUC in beagle dog at 0.3 mg/kg, iv; assay type: ADME, organism-based, Canis lupus familiaris; parameters: dose 0.3 mg/kg, route intravenous; settings: plasma
Hepatitis C virus [11] = experiment: Antiviral activity against Hepatitis C virus genotype 1a by cell-based replicon assay; settings: subtype 1a
[12] = Clearance in beagle dog at 0.3 mg/kg, iv; assay type: ADME, organism-based, Canis lupus familiaris; parameters: dose 0.3 mg/kg, route intravenous; settings: in vivo
[13] = Volume of distribution at steady state in Sprague-Dawley rat at 1 mg/kg, iv; assay type: ADME, organism-based; parameters: dose 1 mg/kg, route intravenous; settings: in vivo, read-out: Vdss
[14] = Half life in beagle dog at 0.3 mg/kg, iv; assay type: ADME, organism-based, Canis lupus familiaris; parameters: dose 0.3 mg/kg, route intravenous; settings: in vivo
Hepatitis C virus [15] = experiment: Antiviral activity against Hepatitis C virus genotype 1b by cell-based replicon assay in presence of 40 % human serum
[16] = Half life in Sprague-Dawley rat at 1 mg/kg, iv; assay type: ADME, organism-based; parameters: dose 1 mg/kg, route intravenous; settings: in vivo
[17] = AUC in Sprague-Dawley rat at 5 mg/kg, po; assay type: ADME, organism-based; parameters: dose 5 mg/kg, route oral; settings: plasma

Row | SMILES | EC50 (Hepatitis C virus [1]) | IC50 [2] | Activity [3] | further results
1 | Cc1ccc([C@H]2CC[C@H](C)CC2)n1-c1cc(-c2ccccc2)sc1C(=O)O | > 33000 nM | 1500 nM |  | 
2 | Cc1ccc(C2CCCCC2)n1-c1cc(-c2ccccc2)sc1C(=O)O | > 33000 nM | 10500 nM |  | 
3 | C[C@H]1CC[C@H](C2CCCC(=O)N2c2cc(-c3ccccc3)sc2C(=O)O)CC1 (some centres not stated) | 11600 nM | 740 nM |  | 
4 | O=C(O)c1sc(-c2ccccc2)cc1N1C(=O)CCCC1C1CCCCC1 (configuration not stated) | 330 nM | 73 nM |  | 
5 | O=C(O)c1sc(-c2ccccc2)cc1N1C(=O)CCCC1C1CCCC1 (configuration not stated) | 3700 nM | 720 nM |  | 
6 | O=C(O)c1sc(-c2ccccc2)cc1N1C(=O)CCCC1C1CCOCC1 (configuration not stated) | > 33000 nM | > 10000 nM |  | 
7 | O=C(O)c1sc(-c2ccccc2)cc1N1C(=O)CCCC1c1ccccc1 (configuration not stated) | 5800 nM | 870 nM |  | 
8 | O=C(O)c1sc(-c2ccccc2)cc1N1C(=O)CCC1C1CCCCC1 (configuration not stated) | 640 nM | 180 nM |  | 
9 | O=C(O)c1sc(-c2ccccc2)cc1N1C(=O)CC[C@H]1C1CCCCC1 | 390 nM | 120 nM |  | 
10 | O=C(O)c1sc(-c2ccccc2)cc1N1C(=O)CC[C@@H]1C1CCCCC1 | > 33000 nM | > 10000 nM |  | 
11 | CC(C)(C)C#Cc1cc(N2C(=O)CCC[C@H]2C2CCCCC2)c(C(=O)O)s1 | 12 nM | 10 nM | 141% | 
12 | CC(C)(C)C#Cc1cc(N2C(=O)COC[C@H]2C2CCCCC2)c(C(=O)O)s1 | 17 nM | 3 nM | 87% | Activity (Hepatocyte): 66%; Activity (Cytochrome P450 3A4): 61%
13 | CC(C)(C)C#Cc1cc(N2C(=O)C(C)(C)OC[C@H]2C2CCCCC2)c(C(=O)O)s1 | 5 nM | 2 nM | 145% | 
14 | CC(C)(C)C#Cc1cc(N2C(=O)[C@H](CCCO)OC[C@H]2C2CCCCC2)c(C(=O)O)s1 | 83 nM | 35 nM |  | 
15 | C[C@@H](O)C[C@H]1OC[C@@H](C2CCCCC2)N(c2cc(C#CC(C)(C)C)sc2C(=O)O)C1=O | 8 nM | 3 nM | 9% | bioavailability [4]: 43%; bioavailability [5]: 77%; Vd [6]: 0.7 L/kg; clearance [7]: 14 mL/min/kg; AUC [8]: 2.76 µM·h; AUC [9]: 6.3 µM·h; AUC [10]: 1.45 µM·h; EC50 (Hepatitis C virus [11]): 11 nM; clearance [12]: 7.7 mL/min/kg; Vd [13]: 3 L/kg; half-life [14]: 300 min; EC50 (Hepatitis C virus [15]): 44 nM; half-life [16]: 312 min; AUC [17]: 10.6 µM·h; Activity (Cytochrome P450 3A4): 2%
16 | C[C@H](O)C[C@H]1OC[C@@H](C2CCCCC2)N(c2cc(C#CC(C)(C)C)sc2C(=O)O)C1=O | 30 nM | 2 nM | 4% | 
17 | CC(C)N(c1cc(-c2ccccc2)sc1C(=O)O)C(=O)[C@H]1CC[C@H](C)CC1 | 270 nM | 60 nM |  | 
18 | CC(C)(C)C#Cc1cc(N2C(=O)[C@@H](CCO)OC[C@H]2C2CCCCC2)c(C(=O)O)s1 (relative stereo) | 7 nM | 2 nM | 3% | bioavailability [4]: 27%; bioavailability [5]: 48%; Vd [6]: 0.3 L/kg; clearance [7]: 27 mL/min/kg; AUC [8]: 1.42 µM·h; AUC [9]: 5.68 µM·h; AUC [10]: 2.08 µM·h; clearance [12]: 5.6 mL/min/kg; Vd [13]: 2.1 L/kg; half-life [14]: 228 min; half-life [16]: 120 min; AUC [17]: 3.37 µM·h; Activity (Cytochrome P450 3A4): 5%
19 | CC(C)(C)C#Cc1cc(N2C(=O)[C@H](CCO)OC[C@H]2C2CCCCC2)c(C(=O)O)s1 (relative stereo) | 66 nM | 12 nM |  | 
20 | CC(C)(C)C#Cc1cc(N2C(=O)[C@@](C)(CCO)OC[C@H]2C2CCCCC2)c(C(=O)O)s1 (relative stereo) | 3 nM | 2 nM | 77% | 
21 | CC(C)(C)C#Cc1cc(N2C(=O)[C@](C)(CCO)OC[C@H]2C2CCCCC2)c(C(=O)O)s1 (relative stereo) | 20 nM | 6 nM | 29% | 
22 | CC(C)(C)C#Cc1cc(N2C(=O)[C@@H](CCCO)OC[C@H]2C2CCCCC2)c(C(=O)O)s1 (relative stereo) | 14 nM | 2 nM | 5% | bioavailability [4]: 12%; bioavailability [5]: 43%; Vd [6]: 0.1 L/kg; clearance [7]: 38 mL/min/kg; AUC [8]: 0.984 µM·h; AUC [9]: 2.92 µM·h; AUC [10]: 2.34 µM·h; clearance [12]: 5.4 mL/min/kg; Vd [13]: 1.2 L/kg; half-life [14]: 144 min; half-life [16]: 66 min; AUC [17]: 2.11 µM·h; Activity (Cytochrome P450 3A4): 2%
23 | CC(C)(C)C#Cc1cc(N2C(=O)[C@@](C)(CCCO)OC[C@H]2C2CCCCC2)c(C(=O)O)s1 (relative stereo) | 11 nM | 2 nM | 34% | 
24 | CC(C)(C)C#Cc1cc(N2C(=O)[C@](C)(CCCO)OC[C@H]2C2CCCCC2)c(C(=O)O)s1 (relative stereo) | 25 nM | 4 nM | 8% | 
